{
  "source": "patent US6403117B1",
  "about": "“Archaesomes, archaeosomes containing coenzyme Q10 and other types of liposomes containing coenzyme Q10 adjuvants and as delivery vehicles” (National Research Council of Canada, priority 1995, dated 2002)",
  "test_system": "bovine serum albumin (BSA) antigen",
  "assay": "Immunization, humoral response by ELISA",
  "format": "in vivo, mice",
  "conditions": "for Antibody titres (A410 nm): 12.5 μg BSA i.p. at days 0 and 14, sera diluted by a factor of 400",
  "experimental": "For in vivo studies with archaeosomes (prepared from the TPL, or a lipid obtained in a biologically pure form from the indicated archaeobacterium) and conventional liposomes (prepared from DMPC:DMPG at 1.8:0.2 molar ratio, or DMPC:DMPG:CHOL at 1.8:0.2:1.5 molar ratio, or DMPC:DCP:CHOL at 7:1:2 molar ratio) containing entrapped antigen, the vesicles were prepared by pressure extrusion (at room temperature for archaeobacterial and at 35° C. for DMPC-containing lipids, using 400 nm pore size filters). About 20 mg dry weight of the dried lipid(s) was hydrated in 1 ml PBS containing either BSA (5 mg/ml), Cholera B toxin subunit (0.5 mg/ml), or O-chain polysaccharide (18 mg/ml). To entrap BSA in DSPC:DCP:CHOL (4:1:5, molar ratio), in DSPC:DCP:CHOL:CoQ10 (3:1:4:2, molar ratio), and M. mazei TPL:CoQ10 (8:2, molar ratio), the vesicles were prepared by the REV (at 55° C.)-sonication method described above. The BSA was encapsulated in these vesicles by the DRV method as described by New (13). The antigen that was not entrapped/associated with the vesicles was removed by centrifugation and washing as described for peroxidase-vesicles.\nThe immunization strategies were similar for each of the different experiments. For each experiment, details of the amounts and types of antigen/adjuvant injected, and the time intervals between injections is described in the appropriate figure legends. Freund's adjuvant (FA) encompasses Freund's complete adjuvant (CFA) and Freund's incomplete adjuvant (IFA) used at 62.5% strength in PBS. For each antigen/adjuvant preparation three mice were injected (unless indicated otherwise) i.p., i.m., or s.c. with antigens encapsulated in archaeosomes or liposomes (diluted in sterile PBS, pH 7.1), antigens emulsified in CFA, or with antigens diluted in PBS alone (final volume, 0.2 ml/mouse). For the second immunization, mice were injected with antigens encapsulated in archaeosomes or liposomes, or emulsified in IFA, or diluted in PBS. For experiments where a third or fourth injection was required, antigens were injected either encapsulated in the respective vesicle type or as bare antigen diluted in PBS. Mice were 6-8 weeks of age at the time of the first immunization.\nMice were bled from the tail veins usually four days after each injection. The blood was allowed to dot, and cells removed from the serum by centrifuging in serum separator tubes.\nThe humoral response was measured by the indirect enzyme-linked immunosorbent assay (ELISA) using a variety of solid-phase adsorbed antigens. BSA, Cholera B toxin subunit, or E. coli 0:157:H7 lipopolysaccharide was diluted in distilled water (15 μg/ml final concentration) and 100 μl/well was dried (overnight incubation at 37° C.) to coat the ELISA microplate wells. All indirect ELISA assays were performed using standard methods. Dilutions of antibody-containing sera were used as the first antibody and a 1/1500 dilution of HRP-conjugated goat anti-mouse IgG+IgM as the detection antibody.\nThe isotypes of anti-BSA antibodies raised in mouse sera were assayed by an ELISA method. Wells were coated with BSA (as above). Dilutions of each serum were titred with peroxidase-coupled sheep anti-mouse IgG1, IgG2a, IgG2b, IgG3, and IgM. All ELISA data are reported as the means ± sample standard deviations.",
  "data": [
    {"substance": "Bare BSA: bovine serum albumin antigen alone in PBS, without adjuvant or vesicle", "values": [
      {"measurement": "Antibody titres (A410 nm)", "setting": "Day 25", "value": "0.064 ± 0.001", "unit": "A410 nm"},
      {"measurement": "Antibody titres (A410 nm)", "setting": "Day 35", "value": "0.082 ± 0.007", "unit": "A410 nm"},
      {"measurement": "Antibody titres (A410 nm)", "setting": "Day 55", "value": "0.075 ± 0.008", "unit": "A410 nm"},
      {"measurement": "Antibody titre (A410 nm)", "setting": "i.m., 12.5 μg antigen alone in PBS, sera diluted 400-fold", "value": "0.063 ± 0.003", "unit": "A410 nm"},
      {"measurement": "Immune response (Relative %)", "setting": "i.p., 12.5 μg BSA, days 0 and 14, blood day 20, IgG + IgM, archaeobacterial lipids none", "value": "6.9 ± 0.3", "unit": "Relative %"},
      {"measurement": "Antibody titre (A410 nm)", "setting": "i.p., 25 μg antigen alone in PBS, no carrier/adjuvant, sera diluted 400 fold", "value": "0.137 ± 0.002", "unit": "A410 nm"},
      {"measurement": "Anti-BSA antibody Concentration", "setting": "i.p., antigen alone in PBS, undiluted sera", "value": 10.5, "unit": "µg/mL"}
    ]}
  ]
}
